The test concerns the target Substance-P receptor (Homo sapiens, UniProt P25103). Description: Tested for the binding affinity against neurokinin NK1 receptor.

Where only a bound is given, the exact number is not on record here.

Sequence of Substance-P receptor (P25103 whole entry): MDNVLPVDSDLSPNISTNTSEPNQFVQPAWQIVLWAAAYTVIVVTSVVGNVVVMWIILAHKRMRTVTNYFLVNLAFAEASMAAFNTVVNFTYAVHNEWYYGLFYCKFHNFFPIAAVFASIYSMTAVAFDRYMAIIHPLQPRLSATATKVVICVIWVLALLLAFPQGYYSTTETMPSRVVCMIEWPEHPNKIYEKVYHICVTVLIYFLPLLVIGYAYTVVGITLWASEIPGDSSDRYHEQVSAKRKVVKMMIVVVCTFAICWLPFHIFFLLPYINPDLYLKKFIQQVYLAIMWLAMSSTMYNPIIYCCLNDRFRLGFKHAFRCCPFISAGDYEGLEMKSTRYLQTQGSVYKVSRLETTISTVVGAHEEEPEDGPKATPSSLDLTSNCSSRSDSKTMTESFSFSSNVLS

As a reminder, the IC50 is the concentration needed to halve the response being measured. Low values mean inhibition by little substance, high ones a need for much substance. For the molecule `Cc1cc(C)cc(C(=O)N2CC[C@H](NC(=O)c3ccnc4ccccc34)C[C@H]2Cc2ccccc2)c1`, the IC50 was 15 nM.

Turning to `Cc1cc(C)cc(/C(F)=C2/CC[C@H](NC(=O)c3ccnc4ccccc34)C[C@H]2Cc2ccccc2)c1`, the half-maximal inhibitory concentration (IC50) came out at 380 nM.

`Cc1cc(C)cc(/C(F)=C2\CC[C@@H](NC(=O)c3ccnc4ccccc34)C[C@@H]2Cc2ccccc2)c1` yielded a half-inhibitory concentration (IC50) of 270 nM.

`Cc1cc(C)cc(/C(F)=C2/CC[C@@H](NC(=O)c3ccnc4ccccc34)C[C@@H]2Cc2ccccc2)c1` gave an IC50 above 10000 nM.

In turn, `Cc1cc(C)cc(/C(F)=C2\CC[C@H](NC(=O)c3ccnc4ccccc34)C[C@H]2Cc2ccccc2)c1` gave an IC50 above 10000 nM.

Molecule `Cc1cc(C)cc(/C(F)=C2\CCC(NC(=O)c3ccnc4ccccc34)CC2Cc2ccccc2)c1` (racemic) displayed a 50% inhibitory concentration (IC50) of 620 nM.

`Cc1cc(C)cc(/C(F)=C2/CCC(NC(=O)c3ccnc4ccccc34)CC2Cc2ccccc2)c1` (racemic) came in with an IC50 of 710 nM.

Source of the values: ChEMBL document CHEMBL1130293, “Studies on the active conformation of the NK1 antagonist CGP 49823. Part 21. Fluoro-olefin analogs of tertiary amide rotamers” (Bioorg Med Chem Lett, 1997).
